How the values were obtained:
S. mutans [1] = assay: Time-kill assay; assay type: cell-based, Streptococcus mutans UA159; conditions: at MBC
Procedure: (§1) The time- and dose-dependent killing capacities of II-6s were assessed by the method modified from that of Koo et al.. S. mutans was diluted to 1 × 10^7 CFU/ml in BHI broth containing test compounds or not, and incubated in 5% CO2 at 37°C. For the time-kill curve, the final concentration of II-6s and CHX was equivalent to their MBC. At 0, 0.5, 1, 2, 4, 6, 8 and 10 h, samples were serially diluted in PBS and 50 μl aliquots were spread onto BHI agar medium. For the dose-dependent killing curve, S. mutans was treated with different doses of II-6s and CHX for 5 min before diluted and spread. All plates were incubated anaerobically for 48 h followed by enumeration of CFU. The time-kill or dose-dependent killing curves were constructed by plotting the log10(CFU/ml) versus the incubation time or concentration. The experiment was performed in triplicates and repeated at least three times.

S. mutans [2] = assay: Dose-dependent killing assay; assay type: cell-based, Streptococcus mutans UA159; conditions: equivalent doses, 5-min exposure
Procedure: as §1

[3] = In vitro cytotoxicity assay (CCK-8); assay type: cell-based, human; conditions: human, 5 min exposure
Procedure: (§2) The cytotoxicity of II-6s was evaluated by the Cell Counting Kit-8 (CCK-8; Dojindo, Kumamoto, Japan) assay as described by Park et al.. Human gingival epithelial cells (HGE), human oral keratinocytes (HOK) and macrophages RAW264.7 (RAW264.7) were provided by the State Key Laboratory of Oral Diseases, Sichuan University, China. HGE, HOK and RAW264.7 were grown in Dulbecco’s modified Eagle’s medium (DMEM; GibcoTM, Invitrogen, Carlsbad, CA, USA) supplemented with 10% fetal bovine serum (FBS; Invitrogen) and 1% penicillin–streptomycin solution (Invitrogen) and cultured at 37°C in a humidified atmosphere containing 5% CO2. All cells were inoculated into 96 well plates at a density of 1 × 10^4 cells per well for 24 h and then treated with II-6s (0.98 to 500 μg/ml) for 5 min or 24 h. The positive control was treated with CHX (0.98 to 500 μg/ml) at the same time. After treatment, the wells were washed with sterile PBS and fresh medium was added. 10 μl of CCK-8 solution (10 μl) was added to each well and incubated for 1.5 h. The absorbance of each well was measured at the wavelength of 450 nm against a blank which contained medium only. Cell viability was calculated according to the following formula: percent viability = (A450 of treated group − A450 of blank control)/(A450 of negative control − A450 of blank control) × 100%. The experiment was conducted in triplicates and repeated three times.

[4] = test system: Human gingival epithelial cells (HGE); assay: In vitro cytotoxicity assay (CCK-8); assay type: cell-based; conditions: 24 h exposure
Procedure: as §2

[5] = test system: human oral keratinocytes (HOK); assay: In vitro cytotoxicity assay (CCK-8); assay type: cell-based; conditions: 24 h exposure
Procedure: as §2

[6] = In vitro cytotoxicity assay (CCK-8); assay type: cell-based; conditions: mouse, RAW264.7 macrophages; RAW264.7, 5 min exposure
Procedure: as §2

macrophages RAW264.7 = assay: In vitro cytotoxicity assay (CCK-8); assay type: cell-based; conditions: RAW264.7, 24 h exposure
Procedure: as §2

CC(C)(Cc1ccc2ccccc2c1)NC[C@H](O)CNc1cc(C(F)(F)F)cc(C(F)(F)F)c1 [II-6s, (S)-1-((3,5-bis(trifluoromethyl)phenyl)amino)-3-((2-methyl-1-(naphthalen-2-yl)propan-2-yl)amino)propan-2-ol]
treatment time after which no visible colonies were observed on the plate (S. mutans [1]): 8 h | reduction of S. mutans (S. mutans [1]; within 2 h): approximately 3 log10 CFU/ml | bactericidal activity in dose-dependent killing assay (S. mutans [2]): better bactericidal activities than CHX | IC50 at 5 min ([3]; human gingival epithelial cells (HGE)): > 125 µg/mL | IC50 at 5 min ([3]; human oral keratinocytes (HOK)): > 125 µg/mL | IC50 (cytotoxicity), compared with CHX [4]: higher than that of CHX | IC50 (cytotoxicity), compared with CHX [5]: higher than that of CHX | IC50 at 5 min [6]: > 125 µg/mL | IC50 (cytotoxicity), compared with CHX (macrophages RAW264.7): higher than that of CHX
